In publication PMC5104457, “ATP-Competitive MLKL Binders Have No Functional Impact on Necroptosis” (PLoS ONE, 2016):

Key:
[1] = molecular target: T1, full length His-MBP-MLKL-3 (Homo sapiens, UniProt Q8NB16); assay: Second harmonic generation (SHG) conformational assay, full length MLKL; settings: 10 μM compound, 20 minutes, mean ± SE
T1 construct: The full length MLKL was prepared in baculovirus; made in house; host or cells: baculovirus-infected sf9 insect cells
T1 sequence (Q8NB16 1-471): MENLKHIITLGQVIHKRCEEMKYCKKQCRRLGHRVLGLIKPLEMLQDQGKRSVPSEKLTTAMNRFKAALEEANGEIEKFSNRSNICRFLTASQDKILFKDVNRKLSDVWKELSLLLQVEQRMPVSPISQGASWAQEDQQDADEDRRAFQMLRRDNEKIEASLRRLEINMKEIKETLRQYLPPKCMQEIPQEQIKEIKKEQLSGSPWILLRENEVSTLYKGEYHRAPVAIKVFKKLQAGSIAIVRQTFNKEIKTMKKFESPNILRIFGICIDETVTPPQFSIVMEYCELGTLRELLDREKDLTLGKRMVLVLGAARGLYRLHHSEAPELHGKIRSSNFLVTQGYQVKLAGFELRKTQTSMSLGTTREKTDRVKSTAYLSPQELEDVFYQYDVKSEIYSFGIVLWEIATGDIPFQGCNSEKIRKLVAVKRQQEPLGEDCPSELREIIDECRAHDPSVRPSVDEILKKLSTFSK
Description: The full length MLKL was prepared in baculovirus using a bacmid DNA which was modified to include a Tev cleavable N-terminal His6 maltose binding protein (His-MBP) tag. His-MBP-MLKL-3 was expressed in baculovirus-infected sf9 insect cells grown in SF-900 II serum-free medium (Invitrogen). Cells were harvested by centrifugation 48 hours post-infection. The cells were resuspended in lysis buffer (50mM TRIS pH 8.0, 500mM NaCl, 10% glycerol, 1mM DTT and Roche EDTA-free protease inhibitor cocktail) and were lysed using a microfluidizer. The lysate was clarified by centrifugation at 20,000 x g for 1 hour at 4°C and the His-MBP-MLKL-3 was captured by batch binding to Nickel NTA resin overnight at 4°C. The resin was washed with buffer A (25mM TRIS pH 8.0, 250mM NaCl, 10% glycerol, 1mM DTT) and loaded into an XK column and washed until no non-specific unbound protein was detected. His-MBP-MLKL3 was eluted from the column using buffer A supplemented with 250mM imidazole pH 8.0 and analyzed by SDS-PAGE. […]
Experiments were performed on a Biodesy Delta System. […] The fundamental is directed to an arrangement of prisms integrated with the custom, glass-bottomed Biodesy Delta Read Plates, where it undergoes total internal reflection (TIR) to generate the evanescent field at the glass-lipid bilayer interface. […]

RIPK1 kinase domain = molecular target: T2, RIPK1 kinase domain (Homo sapiens, UniProt Q13546); assay: ATP-competitive probe displacement assay, RIPK1; format: binding; settings: average of duplicates
T2 construct: purchased DiscoverX
T2 sequence (Q13546 17-289 limits assumed): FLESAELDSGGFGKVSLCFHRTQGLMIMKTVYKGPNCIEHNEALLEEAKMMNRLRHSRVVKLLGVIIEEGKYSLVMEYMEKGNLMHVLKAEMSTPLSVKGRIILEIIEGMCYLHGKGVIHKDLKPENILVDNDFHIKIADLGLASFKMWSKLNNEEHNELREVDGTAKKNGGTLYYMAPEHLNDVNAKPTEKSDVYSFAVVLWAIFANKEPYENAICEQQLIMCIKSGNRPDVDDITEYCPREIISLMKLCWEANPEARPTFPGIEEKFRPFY
Description: Compound binding constants (KDs) were determined at DiscoverX using their KINOMEscan assay platform. This competition binding assay was previously described in Karaman et al. (2008)[18]. Briefly, full length MLKL was expressed in HEK-293 cells as a fusion with an NFκB DNA binding domain and subsequently tagged with a qPCR detection amplicon via interaction with NFκB. […] Twenty microliters of binding reactions were carried out in 384-well polypropylene plates for 1 hour at room temperature. Beads were subsequently washed and resuspended in elution buffer for 30 minutes at room temperature with shaking. The concentration of MLKL in the eluates was measured by qPCR and compound binding constants were calculated using a standard dose-response curve.
A similar approach was used to measure binding affinities for RIPK1 and RIPK3 kinase domains.

Compound: CN(c1ccc(NC(=O)Nc2ccc(OC(F)(F)F)cc2)cc1)c1ccnc(Nc2cccc(S(N)(=O)=O)c2)n1 [cpd 1, reference compound]
- % change in SHG intensity, Full-length HisMBP-MLKL-3 [1]: 25.9 ± 1.6%

Compound: Nc1nccnc1C(=O)O[C@@H](C(=O)Nc1ccc(F)cc1)c1ccccc1 [cpd 4, 3-Amino-pyrazine-2-carboxylic acid (R)-(4-fluorophenylcarbamoyl)-phenyl-methyl ester]
- Kd (RIPK1 kinase domain): > 30 µM
